According to patent publication US20070141618A1, “GENES EXPRESSED IN BREAST CANCER AS PROGNOSTIC AND THERAPEUTIC TARGETS” (priority 2001, published 2007):

Key:
TFF1 = conditions: reportedly; Prud'homme et al. 1985; cited from earlier work
[1] = system: primary invasive breast cancer; test: Clinical tumor response (WHO criteria) in randomized Phase III neoadjuvant trial of letrozole versus tamoxifen; type: in vivo, human (postmenopausal women); conditions: clinical outcome of patients with profiled biopsies; clinical assessment by palpation at 4 months
Description: Definitions of Objective Response Used in the Letrozole (FEMARA™) vs. Tamoxifen Comparison Study
1. Complete Response (CR): The disappearance of all known disease, determined by 2 observations not less than 4 weeks apart.
2. Partial Response (PR): A 50% or more decrease in total tumor size of the lesions which have been measured to determine the effect of therapy by 2 observations not less than 4 weeks apart. In addition there can be no appearance of new lesions or progression of any lesion.
4. Progressive Disease (PD): A 25% or more increase in the size of one or more measurable lesions, or the appearance of new lesions.
Clinical Response Assessment
The primary efficacy variable was tumor response, assessed by clinical examination using World Health Organization (WHO) criteria (see, WHO Handbook for Reporting Results of Cancer Treatment). It was defined as the percentage of patients in each treatment group with a CR or PR as determined clinically in the breast by palpation at 4 months. Possible responses were CR, PR, NC, PD or not assessable/not evaluable (NA/NE). Palpable ipsilateral axillary lymph nodal involvement downgraded a clinical CR in tumor. Other factors were also considered such the percentage of patients who underwent breast-conserving surgery (quadrantectomy/lumpectomy) instead of mastectomy. Patients who became inoperable, or who remained inoperable at 4 months, were counted as treatment failures.
Twenty-one RNA samples were extracted from 14-gauge needle core biopsies collected before initiation of neoadjuvant endocrine therapy from patients enrolled in a randomized Phase III trial of letrozole (FEMARA™, Novartis Pharma, Basal Switzerland) versus tamoxifen for postmenopausal women with primary invasive breast cancer ineligible for breast conserving surgery. RNA was extracted from an additional 30 primary breast adenocarcinomas collected in Sweden, one additional ESR1+breast tumor surgical biopsy, two HUVEC samples, two samples from glioblastoma cell line U373-MG and one MCF7 sample using Trizol (Life Technologies, Gaithersburg, Md.). The clinical samples were collected after informed consent had been obtained according to protocols approved by local ethics committees. RNA was purchased for two samples, an infiltrating Stage III duct carcinoma (Ambion, Austin, Tex.) and a pool of two normal breast tissues (Clontech, Palo Alto, Calif.). The total number of samples prepared was 59 including 53 breast cancer biopsies and one pooled normal breast sample. Total RNA was purified using QIAGEN RNEASY™ columns (Qiagen, Valencia, Calif.), processed and hybridized to the HUGENE™ FL 6800 Array (Affymetrix, Santa Clara, Calif.), as described by Lockhart et al., Nat. Biotechnol., Vol. 14, pp. 1675-1680 (1996).
In another aspect of the invention 136 breast biopsies from 53 patients were obtained. RNA was extracted from 116 biopsies. Expression profiles were generated for 43 biopsies from 35 patients. Predictive markers of endocrine therapy responsiveness in breast tumors were identified. The breakdown of the profiled biopsies from the pre-letrozole (FEMARA™) treatments and the patient's clinical outcome was as follows: four patients with CR, nine patients with PR, four patients with NC and four patients with PD.
For the group treated with tamoxifen there were no patients in the CR category, 10 patients with PR, seven patients with NC and four patients with PD.
Patients with CR or PR were classified as “Responders” and those with NC or PD were classified as “Non-responders”. The expression of 8,000 genes was compared between these two groups in the pre-treatment biopsies from patients given Letrozole (FEMARA™). Numerical values (AvDiff) represent the expression level for that gene in a particular sample. For computational reasons the average of the AvDiff values was calculated for each gene on the array for all of the responders. These averages were then compared to each gene for each individual sample in the Non-responders group. […]

[2] = system: advanced ER-positive breast cancer; conditions: patients with advanced ER-positive breast cancer; Clark et al. 1988; cited from earlier work

CC(=O)[C@H]1CC[C@H]2[C@@H]3CCC4=CC(=O)CC[C@]4(C)[C@H]3CC[C@]12C [progesterone]
effect on TFF1 mRNA levels (TFF1): not

N#Cc1ccc(C(c2ccc(C#N)cc2)n2cncn2)cc1 [letrozole]
patients with Complete Response (CR) [1]: four | patients with No Change (NC) [1]: four | patients with Partial Response (PR) [1]: nine | patients with Progressive Disease (PD) [1]: four

CC/C(=C(\c1ccccc1)c1ccc(OCCN(C)C)cc1)c1ccccc1 [tamoxifen]
effect on estradiol induction of TFF1 (TFF1): inhibited | patients with Complete Response (CR) [1]: no | patients with No Change (NC) [1]: seven | patients with Partial Response (PR) [1]: 10 patients | patients with Progressive Disease (PD) [1]: four | response rate [2]: around 50%

C[C@]12CCC(=O)C[C@@H]1CC[C@@H]1[C@@H]2CC[C@]2(C)[C@@H](O)CC[C@@H]12 [dihydrotestosterone]
effect on TFF1 mRNA levels (TFF1): not
